The source of these data is the SangsterLogP compilation.

As usually defined, the logP is a log measure of how a compound divides between an organic and an aqueous phase. A high value points to a more lipophilic compound. For the compound `COc1nc(N)nc(NC(C)(C)C)n1`, the log partition coefficient (logP) is 1.93.

`CNc1nc(NC)nc(NC(C)C)n1` yielded a logP of 1.87.

For the compound `CCNc1nc(NC(C)C)nc(=O)[nH]1`, the logP worked out at 0.76.

In turn, `CC(C)(C)Nc1nc(N)[nH]c(=O)n1` returned a logP of 0.43.

On to `O=c1[nH]c(=O)[nH]c(=O)[nH]1`, for which the logP is -0.47.

For `CC(C)Nc1nc(N)[nH]c(=O)n1`, the logP was -0.08.

`Nc1nc(N)nc(Cl)n1` yielded a logP of 0.11.

`Nc1nc(N)[nH]c(=O)n1` yielded a logP of -0.46.

`CCNc1nc(N=[N+]=[N-])nc(NC(C)C)n1` gave a logP of 2.57.

Compound `CCC(C)Nc1nc(N)nc(Cl)n1` (centres undefined) showed a logP of 1.78.

Compound `COc1nc(NC(C)C)nc(NC(C)C)n1` had a logP of 2.6.

The compound `Nc1nc(N)nc(N)n1` registered a logP of -0.4.

Take `Cc1nnc(-c2ccccc2)c(=O)n1N`: the logP came out at 0.98.

As to `CCN(CC)c1nc(N)nc(Cl)n1`, the logP came out at 2.12.

Compound `CCNc1nc(NCC)[nH]c(=O)n1` returned a logP of 0.35.

For the compound `CCNc1nc(N)nc(OC)n1`, the logP was 0.83.

Turning to `Nc1nc(N)nc(NC2CC2)n1`, the logP is 0.05.

`CCNc1nc(N)nc(=O)[nH]1`: the log partition coefficient (logP) was -0.3.

Take `CCNc1nc(NC(C)(C)C)nc(=O)[nH]1`: the logP is 1.5.
